Data: PMC10575282, “Elettaria cardamomum (L.) Maton Essential Oil: An Interesting Source of Bioactive Specialized Metabolites as Inhibitors of Acetylcholinesterase and Butyrylcholinesterase” (Plants, 2023)

Legend:
[1] = target: T1, acetylcholinesterase (AChE) from Electrophorus electricus (Electrophorus electricus, UniProt O42275); test: biochemical; assay type: biochemical; details: for AChE Inhibition (%): fractions/compounds at the concentrations in which they are present in EO, average of three assays; for IC50 AChE: ± standard deviation, n = 3
T1 construct: purchased Merck Life Science S.r.l; (Milan, Italy)
T1 sequence (O42275 24-633): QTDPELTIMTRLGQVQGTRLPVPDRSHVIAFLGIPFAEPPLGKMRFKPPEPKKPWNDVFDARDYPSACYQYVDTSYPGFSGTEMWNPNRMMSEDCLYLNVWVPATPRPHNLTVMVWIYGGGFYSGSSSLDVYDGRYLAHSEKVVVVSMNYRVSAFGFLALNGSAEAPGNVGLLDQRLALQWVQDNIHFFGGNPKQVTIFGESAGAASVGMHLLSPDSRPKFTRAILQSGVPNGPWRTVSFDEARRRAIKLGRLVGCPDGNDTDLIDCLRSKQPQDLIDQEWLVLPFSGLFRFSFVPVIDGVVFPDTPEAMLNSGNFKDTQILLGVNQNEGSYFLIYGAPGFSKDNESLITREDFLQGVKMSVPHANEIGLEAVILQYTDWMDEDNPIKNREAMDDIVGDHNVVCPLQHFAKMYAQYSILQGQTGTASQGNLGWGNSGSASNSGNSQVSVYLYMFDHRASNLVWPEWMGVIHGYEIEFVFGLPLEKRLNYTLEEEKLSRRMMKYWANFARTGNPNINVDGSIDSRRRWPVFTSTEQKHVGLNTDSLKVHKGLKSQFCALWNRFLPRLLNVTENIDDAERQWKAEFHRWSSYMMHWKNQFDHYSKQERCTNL
Experimental: (§1) The protocol used in this study was that of Rhee et al., with slight modifications. The following buffers were used: buffer A (50 mM Tris-HCl pH 8), buffer B (50 mM Tris-HCl pH 8, with the addition of 0.1% of bovine albumin and 0.1% of TWEEN20), and buffer C (50 mM Tris-HCl pH 8, with the addition of 0.1 M of NaCl and 0.02 M of MgCl2 6H2O). The enzyme solution of 0.22 U/mL was prepared in buffer B. The acetylthiocholine iodide (ATCI) solution of 1.5 mM was prepared in Millipore water, while the butyrylthiocholine iodide (BTCI) solution was prepared in buffer A. Ellman’s reagent solution at 3 mM was prepared in buffer C.
(§2) The reaction mixture was incubated at 30 °C for 6 min. The absorbance values were measured at 405 nm after incubation. […] The control and sample blank solutions were prepared by replacing 150 µL of the enzyme solution with 150 µL of buffer A.
(§3) The percentage of the AChE or BChE inhibition was measured according to the equation below:% Inhibition = ΔA (Control) − ΔA (Sample)/ΔA (Control) × 100 ΔA (Control) = A412 (Control) − A412 (Control Blank) ΔA(Sample) = A412 (Sample) − A412 (Sample Blank)
(§4) The concentration–response curve was determined for each inhibitor by plotting the inhibitory activity against AChE or BChE as a function of the inhibitor concentration in the reaction mixture.
(§5) The Microsoft Excel programme was used for the Anova test. For the IC50 calculation, an online programme from AAT Bioquest was used (https://www.aatbio.com/tools/ic50-calculator, accessed on 10 May 2023).

[2] = target: T2, butyrylcholinesterase (BChE) from equine serum (Equus caballus, UniProt P81908); test: biochemical; assay type: biochemical; details: for BChE Inhibition (%): fractions/compounds at the concentrations in which they are present in EO, average of three assays
T2 construct: butyrylcholinesterase (BChE) from equine serum; purchased Merck Life Science S.r.l; (Milan, Italy); host or cells: equine serum
T2 sequence (P81908 whole entry): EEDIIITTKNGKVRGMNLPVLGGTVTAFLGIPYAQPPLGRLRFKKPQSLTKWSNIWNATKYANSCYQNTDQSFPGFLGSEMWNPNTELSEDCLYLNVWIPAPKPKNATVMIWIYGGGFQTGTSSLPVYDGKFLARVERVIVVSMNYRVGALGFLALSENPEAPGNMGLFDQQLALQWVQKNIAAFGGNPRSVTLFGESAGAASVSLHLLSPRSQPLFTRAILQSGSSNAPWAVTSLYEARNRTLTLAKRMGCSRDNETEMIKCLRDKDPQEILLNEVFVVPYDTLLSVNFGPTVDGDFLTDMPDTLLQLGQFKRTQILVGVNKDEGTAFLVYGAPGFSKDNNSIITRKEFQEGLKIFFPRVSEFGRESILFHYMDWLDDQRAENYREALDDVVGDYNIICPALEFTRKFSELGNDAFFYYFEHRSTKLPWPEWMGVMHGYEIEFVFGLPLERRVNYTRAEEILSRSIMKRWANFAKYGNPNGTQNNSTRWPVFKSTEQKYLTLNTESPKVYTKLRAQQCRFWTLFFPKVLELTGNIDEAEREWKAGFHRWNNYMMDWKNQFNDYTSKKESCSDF
Experimental: as §1, §2, §3, §4, §5

AChE = details: cited from earlier work
BChE = system: BChE; parameters: method as in doi:10.1016/j.jff.2020.103892; details: cited from earlier work

CC(=O)OC(C)(C)C1CC=C(C)CC1 (stereo not drawn) [α-terpinyl acetate]
AChE Inhibition (%) [1]: 17.0%
IC50 AChE [1]: 50% inhibition was never achieved
IC50 AChE ([1]; listed as α-Terpinyl acetate): Activity lower than 50%
BChE Inhibition (%) [2]: 39.0%
IC50 ([2]; ± standard deviation, n = 3): 112 µM
Type of inhibition of AChE (AChE): competitive inhibition
Type of inhibition of BChE (BChE): mixed inhibition

C=CC(C)(CCC=C(C)C)OC(C)=O (stereo not shown) [Linalyl acetate, linalyl acetate]
BChE Inhibition (%) [2]: 10.3%
BChE Inhibition (%) ([2]; listed as linalyl acetate): active

C=CC(C)(O)CCC=C(C)C (stereo not shown) [Linalool, linalool]
BChE Inhibition (%) [2]: 5.0%
BChE Inhibition (%) ([2]; listed as linalool): active

CC12CCC(CC1)C(C)(C)O2 [1,8-cineole]
IC50 [1]: 91.4 µM
AChE Inhibition (%) [1]: 55.4%
IC50 BChE ([2]; ± standard deviation, n = 3): inactive inhibitor of BChE
IC50 BChE ([2]; ± standard deviation, n = 3, listed as 1,8-Cineole): not active
AChE inhibition (AChE; mechanism still unclear): known to actively inhibit AChE
